Data taken from ChEMBL document CHEMBL4507256 (2021).

Legend:
[1] = biological target: Mitogen-activated protein kinase 11 (Homo sapiens) (UniProt Q15759); details: Compound concentration 1000.0 nM
[2] = biological target: Homeodomain-interacting protein kinase 4 (Homo sapiens) (UniProt Q8NE63); details: Compound concentration 1000.0 nM
[3] = tested on: Mast/stem cell growth factor receptor Kit (Homo sapiens), P10721 [L576P]; details: Compound concentration 1000.0 nM
[4] = biological target: Casein kinase II subunit alpha' (Homo sapiens) (UniProt P19784); details: Compound concentration 1000.0 nM
Chain of Casein kinase II subunit alpha' (Homo sapiens) (P19784 whole entry, looked up): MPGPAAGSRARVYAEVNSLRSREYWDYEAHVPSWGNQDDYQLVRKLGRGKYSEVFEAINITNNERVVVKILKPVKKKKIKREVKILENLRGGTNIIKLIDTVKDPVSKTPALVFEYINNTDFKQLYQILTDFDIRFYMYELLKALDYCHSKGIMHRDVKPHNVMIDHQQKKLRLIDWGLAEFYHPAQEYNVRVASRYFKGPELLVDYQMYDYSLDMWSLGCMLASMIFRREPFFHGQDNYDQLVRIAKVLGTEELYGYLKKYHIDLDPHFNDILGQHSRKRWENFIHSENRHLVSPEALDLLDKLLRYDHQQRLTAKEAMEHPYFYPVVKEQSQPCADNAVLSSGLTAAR

[5] = biological target: Serine/threonine-protein kinase LATS1 (Homo sapiens) (UniProt O95835); details: Compound concentration 1000.0 nM
[6] = tested on: Receptor-type tyrosine-protein kinase FLT3 (Homo sapiens), P36888 [D835V]; details: Compound concentration 1000.0 nM
[7] = biological target: 5-hydroxytryptamine receptor 5A (Homo sapiens) (UniProt P47898); details: Compound concentration 10.0 uM
[8] = biological target: Mitogen-activated protein kinase 1 (Homo sapiens) (UniProt P28482); details: Compound concentration 1000.0 nM
[9] = biological target: Receptor tyrosine-protein kinase erbB-4 (Homo sapiens) (UniProt Q15303); details: Compound concentration 1000.0 nM
[10] = biological target: Alpha-2B adrenergic receptor (Homo sapiens) (UniProt P18089); details: Compound concentration 10.0 uM
Chain of Alpha-2B adrenergic receptor (Homo sapiens) (P18089 whole entry): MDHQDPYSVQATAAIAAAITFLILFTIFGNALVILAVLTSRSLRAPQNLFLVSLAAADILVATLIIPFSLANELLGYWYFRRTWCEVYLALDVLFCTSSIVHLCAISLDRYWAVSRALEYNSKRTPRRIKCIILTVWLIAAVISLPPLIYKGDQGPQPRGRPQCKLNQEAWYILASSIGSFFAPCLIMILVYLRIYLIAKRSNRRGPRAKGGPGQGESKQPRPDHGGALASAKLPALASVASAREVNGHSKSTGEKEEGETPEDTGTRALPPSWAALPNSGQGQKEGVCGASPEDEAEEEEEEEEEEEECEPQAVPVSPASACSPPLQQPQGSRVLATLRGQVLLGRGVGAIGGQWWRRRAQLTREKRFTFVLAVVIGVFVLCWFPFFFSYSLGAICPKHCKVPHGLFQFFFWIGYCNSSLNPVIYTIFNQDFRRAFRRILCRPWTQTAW

[11] = biological target: Ribosomal protein S6 kinase alpha-6 (Homo sapiens) (UniProt Q9UK32); details: Compound concentration 1000.0 nM
[12] = biological target: cGMP-dependent protein kinase 1 (Homo sapiens) (UniProt Q13976); details: Compound concentration 1000.0 nM
[13] = biological target: Calcium/calmodulin-dependent protein kinase type 1G (Homo sapiens) (UniProt Q96NX5); details: Compound concentration 1000.0 nM
Chain of Calcium/calmodulin-dependent protein kinase type 1G (Homo sapiens) (Q96NX5 whole entry): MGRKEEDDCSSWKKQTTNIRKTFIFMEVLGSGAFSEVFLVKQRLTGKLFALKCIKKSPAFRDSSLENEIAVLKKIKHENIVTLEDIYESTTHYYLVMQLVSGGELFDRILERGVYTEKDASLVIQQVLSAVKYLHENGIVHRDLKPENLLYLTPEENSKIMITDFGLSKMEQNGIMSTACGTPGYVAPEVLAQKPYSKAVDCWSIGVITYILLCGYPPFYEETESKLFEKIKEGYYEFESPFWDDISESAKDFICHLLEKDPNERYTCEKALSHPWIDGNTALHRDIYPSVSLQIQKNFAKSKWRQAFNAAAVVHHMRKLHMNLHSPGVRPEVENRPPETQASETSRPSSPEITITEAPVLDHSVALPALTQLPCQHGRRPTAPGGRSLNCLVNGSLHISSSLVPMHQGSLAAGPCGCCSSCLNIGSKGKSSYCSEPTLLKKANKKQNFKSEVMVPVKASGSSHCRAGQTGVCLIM

[14] = biological target: Calcium/calmodulin-dependent protein kinase type 1D (Homo sapiens) (UniProt Q8IU85); details: Compound concentration 1000.0 nM
[15] = biological target: D(1B) dopamine receptor (Homo sapiens) (UniProt P21918); details: Compound concentration 10.0 uM
[16] = tested on: Tyrosine-protein kinase ABL1 (Homo sapiens), P00519 [E255K]; details: Compound concentration 1000.0 nM
[17] = biological target: Mitogen-activated protein kinase kinase kinase 10 (Homo sapiens) (UniProt Q02779); details: Compound concentration 1000.0 nM
[18] = biological target: Serine/threonine-protein kinase PLK3 (Homo sapiens) (UniProt Q9H4B4); details: Compound concentration 1000.0 nM
[19] = tested on: Tyrosine-protein kinase ABL1 (Homo sapiens), P00519 [F317I]; details: Compound concentration 1000.0 nM
[20] = biological target: Sigma intracellular receptor 2 (Homo sapiens) (UniProt Q5BJF2); details: Compound concentration 10.0 uM
[21] = biological target: Beta-2 adrenergic receptor (Homo sapiens) (UniProt P07550); details: Compound concentration 10.0 uM
Chain of Beta-2 adrenergic receptor (Homo sapiens) (P07550 whole entry, looked up): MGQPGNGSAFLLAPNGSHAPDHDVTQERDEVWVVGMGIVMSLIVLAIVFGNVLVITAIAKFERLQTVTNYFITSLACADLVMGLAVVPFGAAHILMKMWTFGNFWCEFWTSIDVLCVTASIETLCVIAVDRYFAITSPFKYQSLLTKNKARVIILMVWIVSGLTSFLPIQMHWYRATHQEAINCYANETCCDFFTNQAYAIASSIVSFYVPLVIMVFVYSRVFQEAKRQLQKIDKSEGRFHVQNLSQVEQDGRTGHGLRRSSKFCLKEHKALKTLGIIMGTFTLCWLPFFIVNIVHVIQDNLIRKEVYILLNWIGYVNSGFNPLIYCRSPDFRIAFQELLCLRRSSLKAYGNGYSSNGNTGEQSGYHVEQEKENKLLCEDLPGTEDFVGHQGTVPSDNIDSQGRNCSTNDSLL

[22] = tested on: Tyrosine-protein kinase ABL1 (Homo sapiens), P00519 [F317L]; details: Compound concentration 1000.0 nM
[23] = biological target: Cyclin-dependent kinase-like 3 (Homo sapiens) (UniProt Q8IVW4); details: Compound concentration 1000.0 nM
[24] = biological target: Phosphatidylinositol 4-phosphate 3-kinase C2 domain-containing subunit beta (Homo sapiens) (UniProt O00750); details: Compound concentration 1000.0 nM
[25] = biological target: Tyrosine-protein kinase receptor TYRO3 (Homo sapiens) (UniProt Q06418); details: Compound concentration 1000.0 nM
[26] = biological target: Uncharacterized serine/threonine-protein kinase SBK3 (Homo sapiens) (UniProt P0C264); details: Compound concentration 1000.0 nM
[27] = biological target: T1, 5-hydroxytryptamine receptor 3A (Homo sapiens) (UniProt P46098); details: Compound concentration 10.0 uM
T1 sequence (whole entry): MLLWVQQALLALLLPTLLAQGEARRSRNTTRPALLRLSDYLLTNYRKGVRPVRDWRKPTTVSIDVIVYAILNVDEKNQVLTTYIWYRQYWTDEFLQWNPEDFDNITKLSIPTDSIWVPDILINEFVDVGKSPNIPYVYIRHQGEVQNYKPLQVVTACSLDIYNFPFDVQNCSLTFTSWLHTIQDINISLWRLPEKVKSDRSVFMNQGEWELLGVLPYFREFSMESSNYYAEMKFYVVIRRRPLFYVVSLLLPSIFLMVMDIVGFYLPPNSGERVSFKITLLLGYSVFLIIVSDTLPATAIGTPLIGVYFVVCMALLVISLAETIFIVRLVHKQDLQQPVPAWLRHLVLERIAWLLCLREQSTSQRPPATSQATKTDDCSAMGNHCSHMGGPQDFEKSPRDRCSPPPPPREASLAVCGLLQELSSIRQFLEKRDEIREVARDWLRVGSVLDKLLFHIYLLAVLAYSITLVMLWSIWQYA

[28] = biological target: Serine/threonine-protein kinase TAO1 (Homo sapiens) (UniProt Q7L7X3); details: Compound concentration 1000.0 nM
[29] = biological target: Serine/threonine-protein kinase PAK 1 (Homo sapiens) (UniProt Q13153); details: Compound concentration 1000.0 nM
[30] = biological target: BDNF/NT-3 growth factors receptor (Homo sapiens) (UniProt Q16620); details: Compound concentration 1000.0 nM
[31] = biological target: Serine/threonine-protein kinase WNK1 (Homo sapiens) (UniProt Q9H4A3); details: Compound concentration 1000.0 nM
[32] = biological target: Mitogen-activated protein kinase kinase kinase 9 (Homo sapiens) (UniProt P80192); details: Compound concentration 1000.0 nM
[33] = biological target: Ankyrin repeat and protein kinase domain-containing protein 1 (Homo sapiens) (UniProt Q8NFD2); details: Compound concentration 1000.0 nM
[34] = biological target: Cyclin-dependent kinase 17 (Homo sapiens) (UniProt Q00537); details: Compound concentration 1000.0 nM
[35] = biological target: Dual specificity mitogen-activated protein kinase kinase 3 (Homo sapiens) (UniProt P46734); details: Compound concentration 1000.0 nM
Chain of Dual specificity mitogen-activated protein kinase kinase 3 (Homo sapiens) (P46734 whole entry): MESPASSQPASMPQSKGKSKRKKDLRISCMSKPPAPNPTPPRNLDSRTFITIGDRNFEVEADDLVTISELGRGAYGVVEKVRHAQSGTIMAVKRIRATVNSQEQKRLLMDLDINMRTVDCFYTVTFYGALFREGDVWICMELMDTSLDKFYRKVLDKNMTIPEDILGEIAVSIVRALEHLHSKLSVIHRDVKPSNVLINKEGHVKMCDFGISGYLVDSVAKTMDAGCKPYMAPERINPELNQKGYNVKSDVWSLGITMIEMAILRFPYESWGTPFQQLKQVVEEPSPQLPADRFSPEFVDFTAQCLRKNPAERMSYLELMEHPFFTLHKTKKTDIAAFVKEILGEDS

[36] = biological target: Serine/threonine-protein kinase WNK3 (Homo sapiens) (UniProt Q9BYP7); details: Compound concentration 1000.0 nM
Chain of Serine/threonine-protein kinase WNK3 (Homo sapiens) (Q9BYP7 whole entry): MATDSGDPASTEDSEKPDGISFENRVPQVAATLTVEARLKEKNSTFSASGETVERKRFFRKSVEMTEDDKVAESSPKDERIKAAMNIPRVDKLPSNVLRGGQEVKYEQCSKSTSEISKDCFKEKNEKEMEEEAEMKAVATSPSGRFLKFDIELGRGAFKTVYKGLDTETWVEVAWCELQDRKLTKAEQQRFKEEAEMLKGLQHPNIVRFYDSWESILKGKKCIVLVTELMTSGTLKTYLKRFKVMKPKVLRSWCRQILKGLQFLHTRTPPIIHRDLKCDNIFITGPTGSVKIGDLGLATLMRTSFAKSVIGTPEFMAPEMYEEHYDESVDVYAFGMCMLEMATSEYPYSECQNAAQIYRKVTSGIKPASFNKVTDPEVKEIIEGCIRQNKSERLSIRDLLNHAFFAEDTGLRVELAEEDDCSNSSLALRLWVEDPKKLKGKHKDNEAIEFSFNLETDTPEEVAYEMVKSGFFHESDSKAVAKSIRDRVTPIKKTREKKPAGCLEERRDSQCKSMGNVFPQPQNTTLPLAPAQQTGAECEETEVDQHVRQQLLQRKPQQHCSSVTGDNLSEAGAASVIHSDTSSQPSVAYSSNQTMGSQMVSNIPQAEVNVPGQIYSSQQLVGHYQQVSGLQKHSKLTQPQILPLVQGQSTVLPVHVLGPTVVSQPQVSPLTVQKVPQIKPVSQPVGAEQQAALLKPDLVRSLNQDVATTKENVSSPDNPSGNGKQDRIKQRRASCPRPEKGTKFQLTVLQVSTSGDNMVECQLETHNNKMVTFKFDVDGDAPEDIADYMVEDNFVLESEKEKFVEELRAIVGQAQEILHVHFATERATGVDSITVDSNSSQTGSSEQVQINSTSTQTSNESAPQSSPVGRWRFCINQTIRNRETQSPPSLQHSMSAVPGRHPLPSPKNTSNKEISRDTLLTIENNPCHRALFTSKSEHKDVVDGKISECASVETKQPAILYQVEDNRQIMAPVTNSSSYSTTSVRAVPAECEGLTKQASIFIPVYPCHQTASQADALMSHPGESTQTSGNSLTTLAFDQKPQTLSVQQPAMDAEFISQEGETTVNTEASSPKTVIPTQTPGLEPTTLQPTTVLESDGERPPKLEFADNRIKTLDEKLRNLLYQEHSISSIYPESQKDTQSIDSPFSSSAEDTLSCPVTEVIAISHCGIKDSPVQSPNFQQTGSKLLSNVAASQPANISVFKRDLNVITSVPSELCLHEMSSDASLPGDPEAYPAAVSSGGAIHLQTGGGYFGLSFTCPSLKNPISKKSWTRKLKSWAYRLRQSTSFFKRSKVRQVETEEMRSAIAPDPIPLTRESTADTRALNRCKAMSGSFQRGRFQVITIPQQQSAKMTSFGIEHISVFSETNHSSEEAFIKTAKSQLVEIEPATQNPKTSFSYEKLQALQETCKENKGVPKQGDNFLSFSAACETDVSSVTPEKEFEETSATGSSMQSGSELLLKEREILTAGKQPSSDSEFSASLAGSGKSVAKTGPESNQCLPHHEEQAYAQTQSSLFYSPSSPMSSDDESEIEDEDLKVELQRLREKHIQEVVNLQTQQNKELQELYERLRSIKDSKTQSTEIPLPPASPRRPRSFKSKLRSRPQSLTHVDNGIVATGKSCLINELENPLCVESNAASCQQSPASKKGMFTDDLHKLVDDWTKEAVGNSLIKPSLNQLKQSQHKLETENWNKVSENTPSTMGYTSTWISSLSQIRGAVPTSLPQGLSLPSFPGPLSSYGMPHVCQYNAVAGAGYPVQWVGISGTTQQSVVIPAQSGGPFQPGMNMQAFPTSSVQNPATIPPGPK

[37] = biological target: Casein kinase II subunit alpha (Homo sapiens) (UniProt P68400); details: Compound concentration 1000.0 nM
[38] = biological target: Receptor-interacting serine/threonine-protein kinase 4 (Homo sapiens) (UniProt P57078); details: Compound concentration 1000.0 nM
Chain of Receptor-interacting serine/threonine-protein kinase 4 (Homo sapiens) (P57078 whole entry): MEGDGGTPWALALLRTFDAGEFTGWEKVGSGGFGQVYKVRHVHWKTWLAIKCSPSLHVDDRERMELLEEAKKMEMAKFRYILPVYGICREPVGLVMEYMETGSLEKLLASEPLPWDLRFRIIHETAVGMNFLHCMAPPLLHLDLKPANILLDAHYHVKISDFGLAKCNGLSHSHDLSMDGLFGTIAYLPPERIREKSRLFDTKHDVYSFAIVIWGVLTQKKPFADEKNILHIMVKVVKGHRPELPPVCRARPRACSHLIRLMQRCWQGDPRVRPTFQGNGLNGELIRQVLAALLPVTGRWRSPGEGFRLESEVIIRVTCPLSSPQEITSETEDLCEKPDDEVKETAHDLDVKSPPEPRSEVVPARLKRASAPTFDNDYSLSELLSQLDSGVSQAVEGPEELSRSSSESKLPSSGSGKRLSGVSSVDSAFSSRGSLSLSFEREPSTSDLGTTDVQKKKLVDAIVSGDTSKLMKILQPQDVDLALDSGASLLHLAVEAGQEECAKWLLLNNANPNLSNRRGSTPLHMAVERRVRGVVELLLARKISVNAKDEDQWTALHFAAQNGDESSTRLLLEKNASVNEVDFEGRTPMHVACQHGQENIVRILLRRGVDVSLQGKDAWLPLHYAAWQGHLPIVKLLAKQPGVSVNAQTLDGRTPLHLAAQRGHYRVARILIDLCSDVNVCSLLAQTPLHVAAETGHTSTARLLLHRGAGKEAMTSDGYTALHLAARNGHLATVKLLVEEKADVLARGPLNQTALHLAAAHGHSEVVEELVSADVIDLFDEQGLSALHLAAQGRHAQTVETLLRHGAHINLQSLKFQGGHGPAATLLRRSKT

Chain of Mitogen-activated protein kinase 11 (Homo sapiens) (Q15759 whole entry): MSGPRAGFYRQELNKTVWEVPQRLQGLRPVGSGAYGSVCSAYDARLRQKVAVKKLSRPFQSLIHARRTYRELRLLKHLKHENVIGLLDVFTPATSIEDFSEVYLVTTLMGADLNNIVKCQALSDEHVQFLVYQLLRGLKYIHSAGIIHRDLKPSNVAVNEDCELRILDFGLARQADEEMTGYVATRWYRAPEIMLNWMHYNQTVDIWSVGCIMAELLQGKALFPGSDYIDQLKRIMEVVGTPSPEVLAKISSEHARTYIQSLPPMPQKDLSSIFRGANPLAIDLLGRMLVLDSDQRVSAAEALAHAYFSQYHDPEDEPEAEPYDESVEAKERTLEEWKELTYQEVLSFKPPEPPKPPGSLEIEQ

CCC(=N\O)/C(C)=C/c1ccc(F)c(C)c1 [A-226]
inactive: residual activity [1] 82% | residual activity [2] 91% | residual activity [3] 94% | residual activity [4] 73% | residual activity [5] 89% | residual activity [6] 100% | inhibition [7] -3.24% | residual activity [8] 92% | residual activity [9] 98% | inhibition [10] 33.1% | residual activity [11] 100% | residual activity [12] 100% | residual activity [13] 100% | residual activity [14] 92% | inhibition [15] 11.8% | residual activity [16] 100% | residual activity [17] 75% | residual activity [18] 100% | residual activity [19] 100% | inhibition [20] 33.4% | inhibition [21] -1.29% | residual activity [22] 100% | residual activity [23] 86% | residual activity [24] 55% | residual activity [25] 100% | residual activity [26] 100% | inhibition [27] 0.44% | residual activity [28] 100% | residual activity [29] 70% | residual activity [30] 100% | residual activity [31] 100% | residual activity [32] 100% | residual activity [33] 100% | residual activity [34] 99% | residual activity [35] 100% | residual activity [36] 100% | residual activity [37] 100% | residual activity [38] 100%

CCC(=N\O)/C(C)=C/c1ccc(F)cc1 [A-079]
inactive: residual activity [1] 82% | residual activity [2] 79% | residual activity [3] 100% | residual activity [4] 100% | residual activity [5] 100% | residual activity [6] 100% | inhibition [7] 3.01% | residual activity [8] 71% | residual activity [9] 66% | inhibition [10] 15.1% | residual activity [11] 81% | residual activity [12] 100% | residual activity [13] 97% | residual activity [14] 100% | inhibition [15] 12.2% | residual activity [16] 52% | residual activity [17] 100% | residual activity [18] 86% | residual activity [19] 100% | inhibition [20] 22.6% | inhibition [21] 6.61% | residual activity [22] 81% | residual activity [23] 80% | residual activity [24] 92% | residual activity [25] 100% | residual activity [26] 100% | inhibition [27] -4.62% | residual activity [28] 100% | residual activity [29] 88% | residual activity [30] 66% | residual activity [31] 83% | residual activity [32] 77% | residual activity [33] 79% | residual activity [34] 90% | residual activity [35] 94% | residual activity [36] 75% | residual activity [37] 74% | residual activity [38] 83%
